Data from US12391825B2, “Thermoplastic polymer composition for micro 3D printing and uses thereof” (priority 2020, dated 2025).

System: cardiac tissues
Settings: compared with cardiac tissue without compound (baseline)
Experimental: Human iPSC cardiomyocytes (CMs) were differentiated from hiPSC line BJ1D by using monolayer differentiation protocols (Lian, et al. 2013; Yang, et al. 2008). The disassociation of cardiomyocytes into single cells was performed at day 21 of stem cell differentiation, using previous methods (Yang, et al. 2008). The disassociated cells and cardiac fibroblast (Lonza, NHCF-V) were mixed to reach a cell number ratio of 10:1. The resultant cells were remixed in a collagen hydrogel at a cell number of 5.5×10^7 cells/mL. […]
Cardiac cultured in a multiwell plate was placed in a chamber (37° C., 5% CO2) of fluorescent microscope (Olympus Corporation). ⅓rd of the media was extracted from one well of the multiwell-plate device. […] After 10-15 min, videos in the green and red channel were recorded. The force and Ca^2+ transients were measured under electrical stimulation at 1 Hz. […] Ca^2+ transients were recorded under fluorescent microscope using a green-light channel (λex490 nm/λem525 nm). The ratio of peak fluorescence to baseline fluorescence intensity was measured the relative Ca^2+ change in the tissues by Image J software (NIH) as described previously (Zhao, et al. 2019). […]
With built-in sensors and electrodes, the contractile force of tissues can be measured in situ. […]

CCN(CC)CC(=O)Nc1c(C)cccc1C [lidocaine]
electrical excitability of a cardiac tissue: inhibited
